According to US12162878B2 (HINOVA PHARMACEUTICALS INC., priority 2018, dated 2024):

The compounds below were run on CWR22RV1 cells (assay: Inhibition of proliferation of CWR22RV1 cells (CCK-8)). Settings: Homo sapiens, CWR22Rv1, 144 h, 6 days.
Format: cell-based, human
How it was run: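 Cells seeded at 1500/well, cultured overnight, then exposed to compounds in 3-fold dilutions (9 concentrations from 10 μM top final, 0.1% DMSO) for 6 days at 37 °C. Viability read by CCK-8 absorbance at 450 nm after 2.5 h; IC50 from dose-response inhibition fit.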
`[2H]C([2H])([2H])n1cc(-c2cc(S(N)(=O)=O)cnc2N2CCC3(CC3)C2)c2cc[nH]c2c1=O` [Compound 198, 5-(6-trideuteromethyl-7-oxo-6,7-dihydro-1H-pyrrolo[2,3-c]pyridin-4-yl)-6-(5-aza-spiro[2.4]heptan-5-yl)pyridin-3-sulfonamide] showed an IC50 of 10 nM.
For `[2H]C([2H])([2H])n1cc(-c2cc(S(N)(=O)=O)cnc2N2CCC3(CC2)CC3)c2cc[nH]c2c1=O` [Compound 199, 5-(6-trideuteromethyl-7-oxo-6,7-dihydro-1H-pyrrolo[2,3-c]pyridin-4-yl)-6-(6-aza-spiro[2.5]octan-6-yl)pyridin-3-sulfonamide], the IC50 was 2 nM.
In the case of `[2H]C([2H])([2H])n1cc(-c2cc(S(N)(=O)=O)ccc2N2CCC3(CC3)C2)c2cc[nH]c2c1=O` [Compound 200, 3-(6-trideuteromethyl-7-oxo-6,7-dihydro-1H-pyrrolo[2,3-c]pyridin-4-yl)-4-(5-aza-spiro[2.4]heptan-5-yl)benzensulfonamide], the IC50 is reported as 6.7 nM.
Work on `[2H]C([2H])([2H])n1cc(-c2cc(S(N)(=O)=O)ccc2N2CCC3(CC2)CC3)c2cc[nH]c2c1=O` [Compound 201, 3-(6-trideuteromethyl-7-oxo-6,7-dihydro-1H-pyrrolo[2,3-c]pyridin-4-yl)-4-(6-azaspiro[2.5]octan-6-yl)benzenesulfonamide] yielded an IC50 of 1.4 nM.
For `[2H]C([2H])([2H])n1cc(-c2cc(S(=O)(=O)N(C)C)ccc2N2CCC3(CC2)CC3)c2cc[nH]c2c1=O` [Compound 203, N,N-dimethyl-3-(6-trideuteromethyl-7-oxo-6,7-dihydro-1H-pyrrolo[2,3-c]pyridin-4-yl)-4-(6-aza-spiro[2.5]octan-6-yl)benzenesulfonamide], the IC50 was 0.2 nM.
`[2H]C([2H])([2H])n1cc(-c2cc(S(=O)(=O)NCCO)ccc2N2CCC3(CC2)CC3)c2cc[nH]c2c1=O` [Compound 205, N-(2-hydroxyethyl)-3-(6-trideuteromethyl-7-oxo-6,7-dihydro-1H-pyrrolo[2,3-c]pyridin-4-yl)-4-(6-aza-spiro[2.5]octan-6-yl)benzenesulfonamide] showed an IC50 of 4.8 nM.
Work on `Cn1cc(-c2cc(C(=O)O)ccc2N2CCC3(CC2)CC3)c2cc[nH]c2c1=O` [Compound 220, 3-(6-methyl-7-oxo-6,7-dihydro-1H-pyrrolo[2,3-c]pyridin-4-yl)-4-(6-aza-spiro[2.5]octan-6-yl)benzoic acid] yielded an IC50 of 530 nM.
`Cn1cc(-c2cc(C(N)=O)ccc2N2CCC3(CC2)CC3)c2cc[nH]c2c1=O` [Compound 221, 3-(6-methyl-7-oxo-6,7-dihydro-1H-pyrrolo[2,3-c]pyridin-4-yl)-4-(6-aza-spiro[2.5]octan-6-yl)benzeneformamide] showed an IC50 of 130 nM.
With `COC(=O)c1ccc(N2CCC3(CC2)CC3)c(-c2cn(C)c(=O)c3[nH]ccc23)c1` [Compound 222, methyl 3-(6-methyl-7-oxo-6,7-dihydro-1H-pyrrolo[2,3-c]pyridin-4-yl)-4-(6-aza-spiro[2.5]octan-6-yl)benzoate] the IC50 was 350 nM.
Compound `CC(=O)c1ccc(N2CCC3(CC2)CC3)c(-c2cn(C)c(=O)c3[nH]ccc23)c1` [Compound 223, 4-(5-acetyl-2-(6-aza-spiro[2.5]octan-6-yl)phenyl)-6-methyl-1H-pyrrolo[2,3-c]pyridin-7(6H)-one] has an IC50 of 110 nM.
`Cn1cc(-c2cc(C(=O)N3CCS(=O)(=O)CC3)ccc2N2CCC3(CC2)CC3)c2cc[nH]c2c1=O` [Compound 224, 4-(5-(1,1-dioxothiomorpholine-4-carbonyl)-2-(6-aza-spiro[2.5]octan-6-yl)phenyl)-6-methyl-1H-pyrrolo[2,3-c]pyridin-7(6H)-one] was tested, and the IC50 was 62 nM.
`Cn1cc(-c2cc(C(C)(C)O)ccc2N2CCC3(CC2)CC3)c2cc[nH]c2c1=O` [Compound 225, 4-(5-(2-hydroxypropan-2-yl)-2-(6-aza-spiro[2.5]octan-6-yl)phenyl)-6-methyl-1H-pyrrolo[2,3-c]pyridin-7(6H)-one] was tested, and the IC50 was 130 nM.
`CC(=O)Nc1ccc(N2CCC3(CC2)COC3)c(-c2cn(C)c(=O)c3[nH]ccc23)c1` [Compound 230] was tested, and the IC50 was 250 nM.
In the case of `[2H]C([2H])([2H])n1cc(-c2cc(S(=O)(=O)CC)ccc2N2CCC3(CC2)CC3)c2cc[nH]c2c1=O` [Compound 232, 4-(5-(ethylsulfonyl)-2-(6-aza-spiro[2.5]octan-6-yl)phenyl)-6-trideuteromethyl-1H-pyrrolo[2,3-c]pyridin-7(6H)-one], the IC50 is reported as 0.6 nM.
Work on `[2H]C([2H])([2H])n1cc(-c2cc(S(=O)(=O)C(C)C)ccc2N2CCC3(CC2)CC3(F)F)c2cc[nH]c2c1=O` [Compound 233, 4-(2-(1,1-difluoro-6-aza-spiro[2.5]octan-6-yl)-5-(isopropylsulfonyl)phenyl)-6-trideuteromethyl-1H-pyrrolo[2,3-c]pyridin-7(6H)-one] yielded an IC50 of 1.3 nM.
`[2H]C([2H])([2H])n1cc(-c2cc(S(=O)(=O)C(C)C)ccc2N2CCC3(CC2)CC3)c2cc[nH]c2c1=O` [Compound 234, 4-(5-(isopropylsulfonyl)-2-(6-aza-spiro[2.5]octan-6-yl)phenyl)-6-trideuteromethyl-1H-pyrrolo[2,3-c]pyridin-7(6H)-one] showed an IC50 of 0.9 nM.
Work on `[2H]C([2H])([2H])n1cc(-c2cc(S(=O)(=O)CC(=O)O)ccc2N2CCC3(CC2)CC3)c2cc[nH]c2c1=O` [Compound 235, 2-((3-(6-trideuteromethyl-7-oxo-6,7-dihydro-1H-pyrrolo[2,3-c]pyridin-4-yl)-4-(6-aza-spiro[2.5]octan-6-yl)phenyl)sulfonyl)acetic acid] yielded an IC50 of 1.7 nM.
With `[2H]C([2H])([2H])n1cc(-c2cc(S(N)(=O)=O)c(F)cc2N2CCC3(CC2)CC3)c2cc[nH]c2c1=O` [Compound 236, 2-fluoro-5-(6-trideuteromethyl-7-oxo-6,7-dihydro-1H-pyrrolo [2,3-c]pyridin-4-yl)-4-(6-aza-spiro[2.5]octan-6-yl)benzenesulfonamide] the IC50 was 3.2 nM.
`[2H]C([2H])([2H])n1cc(-c2cc(S(C)(=O)=O)c(N3CCC4(CC3)CC4)cc2F)c2cc[nH]c2c1=O` [Compound 237, 4-(2-fluoro-5-(methanesulfonyl)-4-(6-aza-spiro[2.5]octan-6-yl)phenyl)-6-trideuteromethyl-1H-pyrrolo[2,3-c]pyridin-7(6H)-one] showed an IC50 of 4.2 nM.
With `[2H]C([2H])([2H])n1cc(-c2cc(S(C)(=O)=O)c(F)cc2N2CCC3(CC2)CC3)c2cc[nH]c2c1=O` [Compound 238, 4-(4-fluoro-5-(methanesulfonyl)-2-(6-aza-spiro[2.5]octan-6-yl)phenyl)-6-trideuteromethyl-1H-pyrrolo[2,3-c]pyridin-7(6H)-one] the IC50 was 8 nM.
In the case of `[2H]C([2H])([2H])n1cc(-c2cc(S(=O)(=O)N3CCCC3C(=O)O)ccc2N2CCC3(CC2)CC3(F)F)c2cc[nH]c2c1=O` (stereo not shown) [Compound 244, 1-((4-(1,1-difluoro-6-aza-spiro[2.5]octan-6-yl)-3-(6-trideuteromethyl-7-oxo-6,7-dihydro-1H-pyrrolo[2,3-c]pyridin-4-yl)phenyl)sulfonyl)pyrrolidin-2-carboxylic acid], the IC50 is reported as 81 nM.
Work on `Cn1cc(-c2cc(N)ccc2N2CCC3(CC2)CC3)c2cc[nH]c2c1=O` [Compound 245, 4-(5-amino-2-(6-aza-spiro[2.5]octan-6-yl)phenyl)-6-methyl-1H-pyrrolo[2,3-c]pyridin-7(6H)-one] yielded an IC50 of 230 nM.
